Target: T1, folate receptors (FRs) on KB cells (Homo sapiens, UniProt P15328)
T1 construct: FR-positive KB cells were heavily seeded into 24-well cell culture plates; endogenous in cells; host or cells: KB cells
Assay: Relative Affinity Assay (displacement of 3H-folic acid)
Type: binding
Conditions: 10% serum/FDRPMI; folic acid set to 1
Method: METHOD: Relative Affinity Assay. The affinity for folate receptors (FRs) relative to folate was determined according to a previously described method (Westerhof, G. R., J. H. Schornagel, et al. (1995) Mol. Pharm. 48: 459-471) with slight modification. Briefly, FR-positive KB cells were heavily seeded into 24-well cell culture plates and allowed to adhere to the plastic for 18 h. Spent incubation media was replaced in designated wells with folate-free RPMI (FFRPMI) supplemented with 100 nM ^3H-folic acid in the absence and presence of increasing concentrations of test article or folic acid. Cells were incubated for 60 min at 37° C. and then rinsed 3 times with PBS, pH 7.4. Five hundred microliters of 1% SDS in PBS, pH 7.4, were added per well. Cell lysates were then collected and added to individual vials containing 5 mL of scintillation cocktail, and then counted for radioactivity. Negative control tubes contained only the ^3H-folic acid in FFRPMI (no competitor). Positive control tubes contained a final concentration of 1 mM folic acid, and CPMs measured in these samples (representing non-specific binding of label) were subtracted from all samples.

T1 sequence (P15328 25-234): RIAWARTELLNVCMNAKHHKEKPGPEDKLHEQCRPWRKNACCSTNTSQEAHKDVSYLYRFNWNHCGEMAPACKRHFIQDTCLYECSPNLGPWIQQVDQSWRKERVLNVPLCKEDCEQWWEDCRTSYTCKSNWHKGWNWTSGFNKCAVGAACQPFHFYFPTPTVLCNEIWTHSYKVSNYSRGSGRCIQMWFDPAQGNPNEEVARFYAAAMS

Nc1nc2ncc(CNc3ccc(C(=O)N[C@@H](CCC(=O)O)C(=O)O)cc3)nc2c(=O)[nH]1 [folic acid]
relative affinity: 1

Source: US20130116195A1, “Binding ligand linked drug delivery conjugates of tubulysins” (priority 2009, published 2013)
